The conditions of data set [1]: cited from earlier work.
Another data set addresses tyrosinase. The settings on record: cited from earlier work.
A short description of data set [2]: copper-chelating activity assay (pyrocatechol violet). The settings on record: 5 mM. As for the experimental part: The copper-chelating activity of compound 4 was assessed using previously reported protocol[44] with minor modifications. […] After that, the absorbance of each well was measured at 620 nm. The copper-chelating activity was calculated using the formula: Copper-chelating activity (%) = [(Acon – Asam)/Acon] × 100, where Acon and Asam are the absorbance of the control and test sample, respectively.

Another data set addresses mushroom tyrosinase. The experiment in a line: mushroom tyrosinase activity assay (L-DOPA substrate). The conditions noted are these: mean ± SEM. It is filed as biochemical. As for the experimental part: The procedure for the mushroom tyrosinase activity assay was conducted in accordance with the methodology described in a previous report. […] In a 96-well plate, 40 μL of mushroom tyrosinase (5 U/μL, Sigma Aldrich, St. Louis, MO, USA) was added to each well, followed by 50 μL of the test compound at various concentrations. After that, 10 μL of 50 mM L-DOPA (purity ≥98%, Sigma-Aldrich, St. Louis, MO, USA) were added and incubated in darkness at 37 °C for 15 min. Finally, the absorbance was measured at 450 nm. The experiment was conducted in triplicate. IC50 values were determined using GraphPad Prism 10.2.2 software.

The next data set can be described thus: cytotoxicity MTT assay. The format is cell-based, murine. The settings on record: mouse, B16F10 melanoma cells, read-out: cell viability. As for the experimental part:
Cell viability was determined using the MTT assay (3-(4,5-dimethylthiazol-2-yl)-2,5-diphenyltetrazolium bromide). B16F10 (murine melanoma cell line) was purchased from American Type Culture Collection (ATCC, Manassas, VA, USA). B16F10 cells were seeded into 96-well plates at a density of 1500 cells per well. After overnight incubation, the cells were treated with different concentrations of the test compound for 48 h. Following this, MTT reagent was added to each well and incubated for 3 h. The culture medium was then removed, and 100 μL of DMSO was used to dissolve the formazan crystals. Absorbance was measured at 540 nm to evaluate cell viability.

Data set [3] has as its system B16F10 murine melanoma cells. Description: melanin assay in α-MSH-stimulated cells. The format is cell-based. As for the experimental part:
Melanin production was assessed according to the methodology outlined in a previous study. B16F10 cells were cultured in 6-well plates at a density of 100,000 cells per well. After overnight incubation, the cells were treated with different concentrations of the test compound for 48 h. Note that 1 μM of α-melanocyte-stimulating hormone (α-MSH) (Sigma Aldrich, St. Louis, MO, USA) was used to induce melanin synthesis. Following treatment, the cells were washed twice with PBS, detached using trypsin/EDTA, and centrifuged at 3,000×g for 5 min. The resulting cell pellets, containing approximately 700,000 cells, were solubilised in 2 M NaOH and heated at 100 °C for 30 min. Melanin content was quantified by measuring absorbance at 405 nm.

By IC50 is commonly meant the concentration that gives 50% inhibition. As usually defined, the viability is a read-out of living cells in per cent, often relative to untreated cells.

Molecules are shown by their SMILES. Like-named read-outs stand apart in the source and are kept apart here. A value given as a limit tells only on which side of the number the result lay.

With `S=C1NCCCc2occc21` [Compound T4FAT, 5,6,7,8-tetrahydro-4H-furo[3,2-c]azepine-4-thione], in data set [1] (200 mM ref 63), the copper ions chelated result is reported as “more than 80%”.
`Sc1nc2ccccc2s1` [Compound 2-TBT, 2-thiobenzothiazole]: the Copper-chelating activity in data set [1] is listed as 48% to 69.
On to `CC1(C)C=Cc2c(O)ccc(C3=Cc4ccc(O)cc4OC3)c2O1` [glabrene], for which the 50% inhibitory concentration (IC50) on tyrosinase was 7600 µM.
Molecule `O=C(O)CN(CCN(CC(=O)O)CC(=O)O)CC(=O)O` [EDTA, ethylenediaminetetraacetic acid] came in with a Copper-chelating activity in data set [2] of 95%.
Regarding `C[C@@H]1[C@H](O)[C@@H](C)/C=C/C=C/C=C/C=C/C=C/C=C/C=C/[C@H](O[C@@H]2O[C@H](C)[C@@H](O)[C@H](N)[C@@H]2O)C[C@@H]2O[C@](O)(C[C@@H](O)C[C@@H](O)[C@H](O)CC[C@@H](O)C[C@@H](O)CC(=O)O[C@H]1C)C[C@H](O)[C@H]2C(=O)O` [amphotericin B], the IC50 at tyrosinase was 263 ± 11.8 µM.
`S=C(NCc1ccc(CNC(=S)Nc2ccc(Cl)cc2)cc1)Nc1ccc(Cl)cc1` [Compound 4] had a Copper-chelating activity in data set [2] of 64%. This molecule displayed an IC50 on mushroom tyrosinase of 61.6 ± 7.82 µM. Further, the viability at 48 h, 1 µM in the data set “cytotoxicity MTT assay” (1 μM) is approximately 90%. Further, in “cytotoxicity MTT assay” (3 μM), the viability at 48 h, 3 µM was approximately 90%. Also, the viability at 48 h, 10 µM in “cytotoxicity MTT assay” (10 μM) is approximately 75%. In the data set “cytotoxicity MTT assay” (30 μM), the viability at 48 h, 30 µM is approximately 50%. Moreover, the viability at 48 h, 100 µM in the data set “cytotoxicity MTT assay” (100 μM) is less than 40%. The melanin production result in data set [3] (10 and 30 μM, 48 h, α-MSH (1 μM)-treated B16F10, vs α-MSH group) is on record as “significantly inhibited melanin production”. Also, the “anti-melanogenic activity compared to KA” value in data set [3] (α-MSH-stimulated B16F10, approximately) is recorded as 30–100 times.
Take `CC(=O)Nc1ccc(/C=N/NC(N)=S)cc1` [thioacetazone]: the IC50 at tyrosinase is 14 µM.
For the molecule `O=c1cc(CO)occ1O` [KA, kojic acid], the Copper-chelating activity in data set [2] is given as 75%. Further, the melanin content entry in data set [3] (1000 μM, 48 h, α-MSH-stimulated B16F10, vs α-MSH group) is “reduced melanin content significantly”.
As to `N=C(N)NN=C1C=CC(=NNC(N)=S)C=C1` [ambazone], on tyrosinase, the half-maximal inhibitory concentration (IC50) was 15 µM.

Source of the values: PMC12897533, “Discovery of bis-thiourea derivatives as potent tyrosinase inhibitors: combined experimental and computational study” (Journal of Enzyme Inhibition and Medicinal Chemistry, 2025).
